Reference: ChEMBL document CHEMBL1158793, “Taxezopidines M and N, taxoids from the Japanese yew, Taxus cuspidata” (J Nat Prod, 2005)
The source made the active and inactive calls. The rule behind the calls is not given here.

How the values were obtained:
KB = assay: Cytotoxicity against human KB cells at 10 ug/ml; type: functional, cell-based
[1] = Inhibition of CaCl2-microtubule depolymerization at 50 uM by spectrophotometry
L1210 = assay: Cytotoxicity against mouse L1210 cells at 10 ug/ml; type: functional, cell-based
[2] = Inhibition of CaCl2-induced microtubule depolymerization at 5 uM by spectrophotometry

C=C1[C@@H](OC(=O)C[C@H](c2ccccc2)N(C)C)CC[C@@]2(C)[C@@H](OC(C)=O)[C@H](OC(C)=O)C3=C(C)[C@]4(O)C[C@@H]([C@@H](OC(C)=O)[C@H]12)[C@@]3(C)CO4
Activity (KB): inactive
Activity [1]: Active
Activity (L1210): inactive

CC(=O)O[C@H]1C(=O)[C@@]2(C)[C@H]([C@H](OC(=O)c3ccccc3)[C@]3(O)C[C@H](OC(=O)[C@H](O)[C@@H](NC(=O)c4ccccc4)c4ccccc4)C(C)=C1C3(C)C)[C@]1(OC(C)=O)CO[C@@H]1C[C@@H]2O
Activity [2]: Active

C=C1[C@@H](OC(=O)C[C@H](c2ccccc2)N(C)C)C[C@H](OC(C)=O)[C@@]2(C)[C@@H](OC(C)=O)[C@H](OC(C)=O)[C@]3(O)[C@@]4(C)CO[C@]3(C)C(=O)C[C@H]4[C@@H](OC(C)=O)[C@H]12
Activity (KB): inactive
Activity (L1210): inactive
